Source: US5616615A, “Enaminone esters” (priority 1995, dated 1997)
Like-named read-outs stand apart in the source and are kept apart here.

What was measured:
[1] = tested on: Maximal electroshock seizures; experiment: Phase VI oral MES test, rats; type: in vivo; settings: Phase VI, oral, rat
From the text: (§1) Maximal electroshock seizures are elicited with a 60-cycle alternating current of 50 mA intensity (5-7 times that necessary to elicit minimal electroshock seizures) delivered via corneal electrodes for 0.2 seconds. A drop of 0.9% saline is instilled in the eye prior to application of the electrodes in order to […].
(§2) This oral screen is designated as phase VI.

Corneal Kindled rats = tested on: Corneal Kindled rats; parameters: ED50 (reduction from Stage 5 to Stage 4): unit not given beside the values; settings: cited from earlier work; for ED50 (reduction from Stage 5 to Stage 4): data provided by the ADD Program
in vivo [2] = settings: mouse, in vivo, ip
Protocol: The first phase of the ADD Program involved performing tests on male Carworth Farms #1 mice. […] Three tests were performed:
In the second phase of the ADD program protocol, estimates of anticonvulsant activity and neurotoxicity are quantified. The median effective dose (ED50) in the MES, sc Met, and rotorod test is determined. In the case of a compound with apparent activity in only one anticonvulsant test, testing is carried out in the other up to, and in some cases beyond, doses which produce neurological deficit. Compounds which fail to produce minimal neurological deficit are tested whenever possible to doses ten times their lowest anticonvulsant ED50. […] The rotorod ED50 is determined at the time of the peak neurologic deficit.

[3] = tested on: Maximal electroshock seizures; experiment: MES maximal electroshock seizure test, mice ip; type: in vivo; parameters: TPE (time of peak effect), activity: unit not given here; settings: Phase II, ip
Protocol: Three tests were performed:
1. MES--Electroshock Seizure Test
as §1

in vivo [4] = settings: rat, po
From the text: as §2

Compound | ED50 [1] | ED50, corneal kindling (Corneal Kindled rats; comparative commercial product) | ED50 (reduction from Stage 5 to Stage 4) (Corneal Kindled rats; po, 1 h, 30 min) | TPE (time of peak effect), toxicity (in vivo [2]) | TPE (time of peak effect), activity [3] | TD50 (in vivo [4]) | ED50 (reduction from Stage 5 to Stage 4) (Corneal Kindled rats; ip, 0.5 h) | activity in corneal kindling (Corneal Kindled rats; oral route) | ED50 (reduction from Stage 5 to Stage 4) (Corneal Kindled rats; po, 0.5 h)
NC(=O)N1c2ccccc2C=Cc2ccccc21 [carbamazepine, reference compound] | 8.5 mg/kg | 28.90 mg/kg | 28.90 | 0.5 | 0.5 | – | – | – | –
O=C1CN=C(c2ccccc2Cl)c2cc([N+](=O)[O-])ccc2N1 [clonazepam] | – | – | 0.70 | – | – | – | – | – | –
O=C1NC(=O)C(c2ccccc2)(c2ccccc2)N1 [phenytoin, reference compound] | 29.8 mg/kg | – | – | 2 | 2 | > 3000 mg/kg | 48.25 | inactive | > 100
